Experimental data taken from ChEMBL document CHEMBL1128059, “Kelatorphan and related analogs: potent and selective inhibitors of leukotriene A4 hydrolase” (Bioorg Med Chem Lett, 1995).

How the values were obtained:
[1] = target: T1, Angiotensin-converting enzyme (Oryctolagus cuniculus, UniProt P12822); test: Inhibitory activity against rabbit lung angiotensin-converting enzyme(ACE)
T1 sequence (P12822 whole entry): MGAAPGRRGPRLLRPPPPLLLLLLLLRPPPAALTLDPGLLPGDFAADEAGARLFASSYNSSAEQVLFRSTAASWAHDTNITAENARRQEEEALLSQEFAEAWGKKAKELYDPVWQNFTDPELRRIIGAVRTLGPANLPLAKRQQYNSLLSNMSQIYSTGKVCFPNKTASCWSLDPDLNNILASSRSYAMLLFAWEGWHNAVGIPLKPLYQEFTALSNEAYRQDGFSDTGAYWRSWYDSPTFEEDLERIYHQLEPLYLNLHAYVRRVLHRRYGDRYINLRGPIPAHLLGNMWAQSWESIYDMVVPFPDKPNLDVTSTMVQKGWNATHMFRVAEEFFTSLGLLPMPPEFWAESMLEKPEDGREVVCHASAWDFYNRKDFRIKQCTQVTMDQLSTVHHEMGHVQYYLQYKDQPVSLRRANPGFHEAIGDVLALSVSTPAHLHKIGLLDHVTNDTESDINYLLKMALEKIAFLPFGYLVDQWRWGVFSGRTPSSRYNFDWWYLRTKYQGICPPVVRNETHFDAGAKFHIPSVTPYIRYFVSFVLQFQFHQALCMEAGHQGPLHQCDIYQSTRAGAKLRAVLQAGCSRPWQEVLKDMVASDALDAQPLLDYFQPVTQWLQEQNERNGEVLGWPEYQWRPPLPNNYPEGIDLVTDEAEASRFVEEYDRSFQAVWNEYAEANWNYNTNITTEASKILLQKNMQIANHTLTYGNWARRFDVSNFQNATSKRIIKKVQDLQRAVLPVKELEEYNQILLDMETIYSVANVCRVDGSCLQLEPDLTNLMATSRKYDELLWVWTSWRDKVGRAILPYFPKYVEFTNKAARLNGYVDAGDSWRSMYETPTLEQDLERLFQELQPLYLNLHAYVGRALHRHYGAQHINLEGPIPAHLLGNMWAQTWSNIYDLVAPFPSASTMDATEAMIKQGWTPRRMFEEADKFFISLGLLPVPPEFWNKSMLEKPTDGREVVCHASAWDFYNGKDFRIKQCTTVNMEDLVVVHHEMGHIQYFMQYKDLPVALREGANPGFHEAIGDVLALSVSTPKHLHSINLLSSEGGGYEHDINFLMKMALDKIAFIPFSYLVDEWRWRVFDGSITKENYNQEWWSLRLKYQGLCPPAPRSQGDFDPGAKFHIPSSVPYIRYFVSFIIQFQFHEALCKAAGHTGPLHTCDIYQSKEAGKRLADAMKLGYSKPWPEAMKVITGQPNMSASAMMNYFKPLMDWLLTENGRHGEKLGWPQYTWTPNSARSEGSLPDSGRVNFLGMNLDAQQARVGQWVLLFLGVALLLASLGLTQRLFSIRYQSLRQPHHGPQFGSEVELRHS

[2] = Inhibitory activity against aminopeptidase
[3] = target: T2, Leukotriene A-4 hydrolase (Homo sapiens, UniProt P09960); test: Inhibitory activity against recombinant human Leukotriene A4 hydrolase
T2 sequence (P09960 whole entry): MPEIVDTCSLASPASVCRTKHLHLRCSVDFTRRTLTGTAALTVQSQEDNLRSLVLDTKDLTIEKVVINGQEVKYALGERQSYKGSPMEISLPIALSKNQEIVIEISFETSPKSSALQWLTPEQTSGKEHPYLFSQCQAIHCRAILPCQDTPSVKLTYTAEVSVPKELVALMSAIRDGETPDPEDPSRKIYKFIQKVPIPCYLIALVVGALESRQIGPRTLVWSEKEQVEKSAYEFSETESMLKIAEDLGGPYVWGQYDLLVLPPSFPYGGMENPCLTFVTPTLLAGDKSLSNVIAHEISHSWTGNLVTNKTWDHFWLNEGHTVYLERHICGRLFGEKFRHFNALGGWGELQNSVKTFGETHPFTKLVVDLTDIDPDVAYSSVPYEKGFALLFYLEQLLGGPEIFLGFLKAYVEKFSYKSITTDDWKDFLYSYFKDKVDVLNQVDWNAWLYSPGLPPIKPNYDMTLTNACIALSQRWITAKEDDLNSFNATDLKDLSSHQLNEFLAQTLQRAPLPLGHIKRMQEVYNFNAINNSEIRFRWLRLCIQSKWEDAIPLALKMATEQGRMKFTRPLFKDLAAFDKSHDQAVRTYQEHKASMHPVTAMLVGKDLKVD

Neprilysin = target: T3, Neprilysin (Oryctolagus cuniculus, UniProt P08049); test: Inhibitory activity against rabbit kidney neutral endopeptidase (NEP)
T3 sequence (P08049 whole entry): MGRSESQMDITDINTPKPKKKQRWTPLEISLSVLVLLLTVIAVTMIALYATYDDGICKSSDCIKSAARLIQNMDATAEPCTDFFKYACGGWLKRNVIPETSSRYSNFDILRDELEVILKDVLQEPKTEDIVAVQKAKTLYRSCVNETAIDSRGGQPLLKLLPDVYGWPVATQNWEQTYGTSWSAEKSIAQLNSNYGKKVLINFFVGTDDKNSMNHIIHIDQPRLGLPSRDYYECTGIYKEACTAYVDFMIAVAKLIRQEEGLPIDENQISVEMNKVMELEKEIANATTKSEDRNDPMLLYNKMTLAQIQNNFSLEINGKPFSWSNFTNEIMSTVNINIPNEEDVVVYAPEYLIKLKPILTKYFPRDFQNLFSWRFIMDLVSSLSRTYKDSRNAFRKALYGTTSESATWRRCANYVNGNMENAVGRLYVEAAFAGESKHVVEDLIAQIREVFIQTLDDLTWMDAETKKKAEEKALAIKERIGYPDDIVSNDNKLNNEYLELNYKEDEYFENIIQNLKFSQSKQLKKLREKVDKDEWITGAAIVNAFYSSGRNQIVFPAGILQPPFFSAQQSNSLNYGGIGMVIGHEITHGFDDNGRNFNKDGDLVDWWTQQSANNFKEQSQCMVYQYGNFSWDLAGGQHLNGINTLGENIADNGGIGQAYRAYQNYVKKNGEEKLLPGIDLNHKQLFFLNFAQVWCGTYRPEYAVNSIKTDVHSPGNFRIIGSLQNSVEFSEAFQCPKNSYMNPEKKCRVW

[4] = target: T1, Angiotensin-converting enzyme; test: Inhibitory activity against rabbit lung angiotensin-converting enzyme (ACE)
[5] = target: T2, Leukotriene A-4 hydrolase; test: Inhibitory activity against LTA 4 hydrolase in epoxide hydrolase assay
[6] = target: T2, Leukotriene A-4 hydrolase; test: Inhibitory activity against LTA 4 hydrolase in aminopeptidase assay

Row | SMILES | IC50 [1] | IC50 [2] | IC50 [3] | IC50 (Neprilysin) | IC50 [4] | Ki [5] | Ki [6]
1 | O=C(C[C@@H](Cc1ccccc1)C(=O)N1CCCC[C@H]1C(=O)O)NO | 40000 nM | 10 nM | 8 nM | 17000 nM |  |  | 
2 | CSCC[C@@H](NC(=O)[C@@H](CC(=O)NO)Cc1ccccc1)C(=O)O | 20000 nM | 2 nM | 12 nM | 61000 nM |  |  | 
3 | C[C@H](NC(=O)[C@@H](CC(=O)NO)CC1CCCCC1)C(=O)O | > 100000 nM | 10 nM | 5 nM | 2000 nM |  |  | 
4 | C[C@@H](C(=O)O)N(C)C(=O)[C@@H](CC(=O)NO)Cc1ccccc1 | > 100000 nM | 1 nM | 3 nM | 3400 nM |  |  | 
5 | O=C(C[C@@H](Cc1ccccc1)C(=O)N[C@@H](CC1CCCCC1)C(=O)O)NO | > 100000 nM | 42 nM | 10 nM | 104000 nM |  |  | 
6 | C[C@H](NC(=O)[C@@H](CC(=O)O)Cc1ccccc1)C(=O)O | > 100000 nM | 140 nM | 300 nM |  |  |  | 
7 | C[C@H](CS)C(=O)N1CCC[C@H]1C(=O)O [CAPTOPRIL] |  | 2000 nM | 10000 nM |  |  |  | 
8 | O=C(C[C@@H](Cc1ccccc1)C(=O)N1CCCC[C@@H]1C(=O)O)NO | > 100000 nM | 2300 nM | 1800 nM |  |  |  | 
9 | O=C(C[C@@H](Cc1ccccc1)C(=O)N[C@@H](Cc1c[nH]c2ccccc12)C(=O)O)NO |  | 5 nM | 10 nM |  |  |  | 
10 | O=C(C[C@@H](Cc1ccccc1)C(=O)N1CCC[C@H]1C(=O)O)NO |  | 18 nM | 30 nM | > 36000 nM | 3000 nM |  | 
11 | C[C@H](NC(=O)C(CS)Cc1ccccc1)C(=O)O (stereo not given in full) | 200 nM | > 10000 nM | > 3000 nM |  |  |  | 
12 | O=C(C[C@@H](Cc1ccccc1)C(=O)N1CCC[C@@H]1C(=O)O)NO |  | 15000 nM | 20000 nM |  | > 100000 nM |  | 
13 | C[C@H](NC(=O)[C@@H](CC(=O)NO)Cc1ccccc1)C(=O)O [KELATORPHAN] |  | 7 nM | 5 nM | 46 nM | > 10000 nM | 18 nM | 10 nM
14 | C[C@H](NC(=O)[C@@H](CCC(=O)NO)Cc1ccccc1)C(=O)O | 20000 nM |  | > 10000 nM |  |  |  | 
15 | C[C@H](NC(=O)[C@@H](CCS)CC1CCCCC1)C(=O)O |  |  | > 3000 nM | > 100000 nM |  |  | 
